Columns and labels:
HCT116 cells = assay: Inhibition of cancer cell proliferation (MTT, GIC50); format: cell-based; settings: Homo sapiens, HCT-116, 48 h incubation
Experimental: HCT116 cells derived from human colorectal cancer were used, and a cancer cell proliferation inhibition effect of a biguanide derivative was confirmed by measuring a concentration value (cell growth inhibition concentration, GIC50) at which cell growth was inhibited 50% using a 3-(4,5-dimethylthiazol-2-yl)-2,5-diphenyltetrazolium bromide (MTT) reagent.
First, the HCT116 cells were put on a 96-well plate and incubated for 24 hours to each have cell count of approximately 5000 in a DMEM medium containing 10% fetal bovine serum. Subsequently, to obtain the GIC50 value of each compound, 100 μM (or 200 μM), 25 μM, 6.25 μM, 1.56 μM or 0.39 μM of the compound was treated to each culture medium and then incubated for 48 hours. To confirm living cells after treatment with the compound, MTT was added to each culture medium and further incubated for 3 hours. Generated formazane crystal was dissolved using dimethyl sulfoxide (DMSO), and absorbance of the solution was measured at 560 nm. After the 48-hour incubation, a ratio of […] synthesized in the examples was indicated as cell viability (%) according to each administered concentration. A cell viability curve was plotted using the cell viability (%) and the calculated concentration value (GIC50) of the compound, at which 50% of the growth was inhibited, to confirm an effect on the inhibition of cancer cell proliferation.

AMPK = AMPK activation (AMPKα immunoassay kit, phospho-Thr172) in MCF7 cells; format: cell-based, human; design: AMPK Activation 50 uM (degree of phosphorylated AMPKα Thr172): unit not given here; settings: 24 h; for AMPK Activation Fold: 50 uM compound vs 0 (no compound); for AMPK Activation 50 uM (degree of phosphorylated AMPKα Thr172): 50 uM compound
Experimental: The MCF7 cells were put on a 6-well plate and incubated in a DMEM medium containing 10% fetal bovine serum in an incubator to which 5% CO2 was supplied to have a cell count of approximately 5×10^5. 50 μM of the derivatives synthesized in the examples were treated to the each culture medium, and the cells were incubated for 24 hours. Subsequently, the cells were lysed by a method presented in the operation manual of the AMPKα immunoassay kit, and 20 μg of cell lysates were yielded through protein assay.

Row | Compound | melting point [°C] | IC50 (HCT116 cells) [µM] | AMPK Activation Fold (AMPK) | AMPK Activation 50 uM (degree of phosphorylated AMPKα Thr172) (AMPK)
1 | Cl.N=C(N)N/C(=N/Cc1cccnc1)NC1CCCCC1 [Example 26, N4-(pyridine-3-yl)methyl-N5-cyclohexyl biguanide hydrochloride] | 265 to 266 | > 100 | 2.3 | 15.4
2 | CCCCN/C(=N\c1ccc(Br)cc1)NC(=N)N.Cl [Example 17, N4-(4-bromo)phenyl-N5-butyl biguanide hydrochloride] | 195 to 196 | 126 | 3.9 | 26.3
3 | CCCCN/C(=N\Cc1ccccc1Cl)NC(=N)N.Cl [Example 19, N4-(2-chloro)benzyl-N5-butyl biguanide hydrochloride] | 147 to 148 | > 100 | 2.8 | 19.1
4 | Cl.N=C(N)N/C(=N/Cc1ccco1)NCc1ccccc1 [Example 32, N4-(furan-2-yl)methyl-N5-benzyl biguanide hydrochloride] | 116 to 117 | > 100 | 2.5 | 16.9
5 | CCCCN/C(=N\C12CC3CC(CC(C3)C1)C2)NC(=N)N.Cl [Example 16, N4-adamantyl-N5-butyl biguanide hydrochloride] | 193 to 194 | 34.7 | 6.7 | 35.3
6 | Cl.N=C(N)N/C(=N/Cc1ccc2c(c1)OCO2)NCCc1ccccc1 [Example 39, N4-(benzo[1,3]dioxol-5-yl)methyl-N5-(phenethyl)biguanide hydrochloride] | 168 to 169 | > 100 | 0.9 | 6.4
7 | CCCCN(CC)/C(=N\CCc1ccccc1)NC(=N)N.Cl [Example 48, N4-(phenethyl)-N5,N5-(butyl)(ethyl)biguanide hydrochloride] | 228 to 229 | > 100 | 1.0 | 6.6
8 | Cl.N=C(N)N/C(=N/c1ccc(C(F)(F)F)cc1)NCCc1ccccc1 [Example 37, N4-(4-trifluoromethyl)phenyl-N5-(phenethyl)biguanide hydrochloride] | 150 to 151 | 12.4 | 4.1 | 10.2
9 | CCCCCCN(CCCCCC)/C(=N\CCc1ccccc1)NC(=N)N.Cl [Example 49, N4-(phenethyl)-N5,N5-dihexyl biguanide hydrochloride] | 138 to 140 | > 100 | 5.2 | 35.2
10 | CCCCN/C(=N\C1CCCC1)NC(=N)N.Cl [Example 14, N4-cyclopentyl-N5-butyl biguanide hydrochloride] | 190 to 191 | > 100 | 3.4 | 23.2
11 | Cl.N=C(N)N/C(=N/C1CCCC1)NCc1ccccc1 [Example 30, N4-cyclopentyl-N5-benzyl biguanide hydrochloride] | 166 to 167 | > 200 | 1.4 | 7.3
12 | CN/C(=N\Cc1ccccc1)NC(=N)N.Cl [Example 5, N4-benzyl-N5-methyl biguanide hydrochloride] | 113 to 115 | > 100 | 1.6 | 10.8
13 | CCCC/N=C(/NC(=N)N)N(Cc1ccccc1)C(C)C.Cl [Example 45, N4-butyl-N5,N5-(benzyl)(isopropyl)biguanide hydrochloride] | 170 to 171 | > 100 | 1.0 | 7.1
14 | CCCCN/C(=N\C(C)C)NC(=N)N.Cl [Example 11, N4-isopropyl-N5-butyl biguanide hydrochloride] | 173 to 175 | > 100 | 0.6 | 4.2
15 | C/N=C(/NC(=N)N)N(C)Cc1ccccc1.Cl [Example 44, N4-methyl-N5,N5-(benzyl)(methyl)biguanide hydrochloride] | 120 to 122 | > 100 | 1.9 | 12.8
16 | CN/C(=N\CCc1ccccc1)NC(=N)N.Cl [Example 6, N4-(phenetyl)-N5-methyl biguanide hydrochloride] | 126 to 127 | > 100 | 4.9 | 33.1
17 | Cl.N=C(N)N/C(=N/Cc1ccc(F)cc1)NCCc1ccccc1 [Example 41, N4-(4-fluoro)benzyl-N5-(phenethyl)biguanide hydrochloride] | 125 to 127 | 42.8 | 4.0 | 10.1
18 | Cl.N=C(N)N/C(=N/CCc1cccs1)NCCc1ccccc1 [Example 42, N4-(thiophene-2-yl)ethyl-N5-(phenethyl)biguanide hydrochloride] | 183 to 185 | 76 | 5.9 | 31.5
19 | CCC/N=C(\NC)NC(=N)N.Cl [Example 2, N4-propyl-N5-methyl biguanide hydrochloride] | 170 to 171 | > 100 | 1.0 | 6.5
